Measurements taken from ChEMBL document CHEMBL1123115, “Synthesis and antiviral activity of 11-azapentacyclo[6.2.1.0.0.0]decane” (J Med Chem, 1985).

Tests used:
Human alphaherpesvirus 1 = assay: Effect on herpes simplex virus HSV-1; Ineffective; format: functional, organism-based
Human alphaherpesvirus 2 = assay: Effect on herpes simplex virus HSV-2; Ineffective; format: functional, organism-based

C1C2C3CC4C1C1C2NC3C41 (configuration not stated)
Activity (Human alphaherpesvirus 1): Ineffective
Activity (Human alphaherpesvirus 2): Ineffective
